Data from patent US9078949B2, “Compositions of partially deacetylated chitin derivatives” (GENIS HF., priority 2005, dated 2015).
Like-named read-outs stand apart in the source and are kept apart here. Each block holds one molecule with its values, some of them ahead of it.

Key:
[1] = biological target: T1, Chitinase A (Serratia marcescens, UniProt P07254); experiment: Blocking of Chitinase A activity (4-MU-A3 substrate, fluorescence); type: biochemical; conditions: for blocking of chitinase activity: pH 7.4
Experimental: Chitooligosaccharides (ChOS) (lots No. G020418 and G020218) were fractionated into homologue fractions, either by cation exchange chromatography or gel permeation chromatography or by the combination of both methods. The products were freeze dried and analysed for structure and sequence by MALDI-TOF mass spectrometry. Three other un-fractionated ChOS lots from Genis were also analysed by the same MALDI-TOF method (lots No. G040823, G050421 and G050421UF; where UF stands for ultrafiltrated through 1 kDa membrane to reduce the content of DP≦5).
A purified Chitinase A preparation from S. marcescens was used as a standard Family 18 chitinase, and 4-methylumbelliferyl-beta-D-N,N′-triacetylchitotrioside (4-MU-A3), a chitin tetramer (A4) analogue, was used as a standard chitinase substrate.
The standard Chitinase A solution was 0.5 nM (500 pM) in 0.1 mg/ml BSA, 50 mM phosphate buffer pH 7.4 (Chit-A sol.) and the substrate solution was 40 μM 4-MU-A3 in 50 mM phosphate buffer pH 7.4.
Different concentration of each pure ChOS homologue (usually 0, 25, 50, 100, 200, 400 and 800 μM) was made in the substrate buffer. For the assay, 25 μl of the Chit-A solution was mixed with 25 μl of the substrate/blocking solution, incubated at 37° C. for 10 min. The reaction was stopped with 1.95 ml 0.2 M sodium […] buffer (Na2CO3). The formation of the product, 4-Methylumbelliferone (4-MU) was read for each reaction in a Perken-Elmer LS SOB Fluorometer. The excitation wavelength was 380 nm (5 nm adjusting slit) and the emission wavelength was 460 nm (4 nm adjusting slit). Each reaction was read in triplicate. […] Affinity of each homologue was calculated as inverted IC50.
Even tough the chitinase A has an optimal activity at pH 5.5, the pH for the blocking experiments was adjusted at pH 7.4. This was done in order to free the amine groups of ChOS from protons, since earlier pilot experiments performed at pH 5.5 indicated low blocking activities of the ChOS homologues. Also this pH better resembles the physiological pH of blood and other physiological fluids, better reflecting the behaviour of the oligosaccharides in the human body.

[2] = biological target: HC gp-39 (39-kDa Human Cartilage Glycoprotein) (Homo sapiens, UniProt P36222); experiment: Binding to HC gp-39 by intrinsic tryptophan fluorescence
Experimental: The affinities of non-covalent complexes between ChOS and HC gp-39 were analysed making use of the change of the intrinsic tryptophan fluorescence of the protein under binding conditions. The change of fluorescence intensity is caused by ligand-induced changes of the solvent cover of tryptophan residues and positively correlated with the sugar concentration.
HC gp-39 was dissolved in 25 mM Tris-HCl buffer pH 7.4 containing 1 mM dithiothreitol to a final concentration of 1.00 μM (protein solution). Different concentrations of homologues were prepared in 25 mM Tris-HCl buffer pH 7.4 containing 1 mM dithiothreitol (sugar solution). […] The fluorescence was read for each reaction in a Perkin-Elmer LS SOB fluorescence spectrometer (Perkin-Elmer, Überlingen, Germany). […] Each reaction was measured in triplicate.
From the row fluorescence data the fluorescence of the blank was subtracted. F-F0 was plotted versus the concentration of the homologue and the data were fitted by non-linear regression to a one-site saturation model employing SigmaPlot® software to obtain binding isotherms. y=Bmax*x/(Kd+x) Bmax: fluorescence intensity for a saturated binding domain of HC gp-39 Kd: dissociation constant.

[3] = biological target: T1, Chitinase A; experiment: Cleavage of oligomers by Chitinase A judged by MALDI-TOF (biostability); type: in vitro ADME, S. marcescens; conditions: assay conditions (pH 5.5 and pH 7.4)
[4] = Absorption of chitooligosaccharides into the blood of a human volunteer (MALDI-TOF MS, GPC, HPIEC); type: in vivo; conditions: for Mass calc (HPIEC homologue): blood sample (7.0 ml) after 3 weeks of ChOS consumption
Experimental: Chitooligomers composed of N-acetyl glucosamine and glucosamine were prepared by Genis, Reykjavik, Iceland. Briefly, chitin was partially deacetylated in alkali, washed and hydrolysed to oligomers by chitinase. Oligomers were ultrafiltrated, desalted and spray dried to a fine white powder. Average degree of deacetylation was 47% (FA 0.53). Analysis and quantification of oligomers and homologues were performed, using the same methods as for the blood.
A voluntary subject was consuming daily 1.8 g of ChOS (Genis ehf; S41124-1K) for a period of 4 weeks. Blood samples were collected within a period of 6 weeks. The first sample was taken before consumption of ChOS. The following 4 samples were taken weekly starting 1 week after the first consumption. Sample 6 was taken 2 weeks after stopping the consumption of ChOS. The volume of each sample was 7.0 ml. The blood samples were centrifuged for 30 min at 3000 rpm. The serum was collected. Methanol and sodium chloride were added to a final concentration of 30% methanol and 0.1 mg/ml sodium chloride followed by another centrifugation step. Samples of 500 μl were filtered through 3 kDa cut-off membranes (ultrafiltration). The supernatant was filled up for 3 times. Appropriate filtrates were pooled, the methanol was removed in vacuum, and the samples were finally lyophilised.
The lyophilised samples (app. 100 μg) were redissolved in 100 μl of methanol/water (v/v 50:50). An aliquot of the solution was mixed on the target with 2 μl of a solution of DHB in 30% aqueous ethanol ([…]). The drop was dried under a gentle stream of air. Mass spectra were recorded on a Bruker Reflex II (Daltonik, Bremen, Germany) in the positive ion mode. For ionisation, a nitrogen laser (337 nm, 3 ns pulse width, 3 Hz) was used. All spectra were measured in the reflector mode using external calibration. Monoisotopic peaks are labelled in all mass spectra.
The lyophilised samples (appr. 100 μg) were redissolved in 100 μl of methanol/deuterium oxide (v/v 50:50). A 10-fold molar excess of hexadeutero acetic anhydride was added as well as 3 drops of glacial tetradeutero acetic acid. The solution was stirred at 30° C. for 12 h. The reaction was stopped by addition of an equimolar amount of ammonia. The solutions were lyophilised and redissolved in 100 μl of ammonia. The concentration of ammonia was set to a 10-fold molar excess with respect to the moles of N-acetyl glucosamine units (GlcNAc or A). The solution was stirred at 22° C. over night. The ammonia was removed in vacuum, followed by lyophilisation of the samples. […] The concentration of potassium hydroxide was set to a 2-fold molar excess with respect to the moles of GlcNAc units. The solution was stirred for 10 h at r. t. neutralized by addition of cation exchange resin (H^+ form) followed by filtration and lyophilisation of the filtrate.
MALDI-TOF mass spectra were taken as described in Example 4. The quantification of relative signal intensities leads to the composition of homologues in the mixture.
The samples are prepared as described under Homologue determination by MALDI-TOF MS. Subsequently, a standard was added to each sample. The standard, a chitin oligomer (An), has to be of the same DP+/−1 as the analyte. A serial dilution of this standard was used. A comparison of the signal intensities of the analyte with the standard gives the concentration of the analyte. […]
Mixtures of homologues (and oligomers) obtained from the GPC separation were analysed by HPIEC. […]

T1 sequence (P07254 24-563): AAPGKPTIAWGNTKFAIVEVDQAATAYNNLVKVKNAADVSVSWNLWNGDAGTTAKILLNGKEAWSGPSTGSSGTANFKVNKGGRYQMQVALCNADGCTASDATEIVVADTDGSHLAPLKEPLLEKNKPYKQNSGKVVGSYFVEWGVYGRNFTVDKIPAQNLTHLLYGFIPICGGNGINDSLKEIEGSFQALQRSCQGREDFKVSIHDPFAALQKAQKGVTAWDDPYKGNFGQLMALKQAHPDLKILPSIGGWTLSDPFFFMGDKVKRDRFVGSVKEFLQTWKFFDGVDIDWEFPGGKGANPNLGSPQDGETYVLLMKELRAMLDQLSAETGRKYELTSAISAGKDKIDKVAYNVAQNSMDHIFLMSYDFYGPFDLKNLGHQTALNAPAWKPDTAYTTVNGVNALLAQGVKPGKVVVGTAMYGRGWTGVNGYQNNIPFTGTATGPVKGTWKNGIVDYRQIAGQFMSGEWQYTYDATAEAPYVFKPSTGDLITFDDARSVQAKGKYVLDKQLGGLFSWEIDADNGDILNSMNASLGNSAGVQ
Chain of HC gp-39 (39-kDa Human Cartilage Glycoprotein) (P36222 22-383): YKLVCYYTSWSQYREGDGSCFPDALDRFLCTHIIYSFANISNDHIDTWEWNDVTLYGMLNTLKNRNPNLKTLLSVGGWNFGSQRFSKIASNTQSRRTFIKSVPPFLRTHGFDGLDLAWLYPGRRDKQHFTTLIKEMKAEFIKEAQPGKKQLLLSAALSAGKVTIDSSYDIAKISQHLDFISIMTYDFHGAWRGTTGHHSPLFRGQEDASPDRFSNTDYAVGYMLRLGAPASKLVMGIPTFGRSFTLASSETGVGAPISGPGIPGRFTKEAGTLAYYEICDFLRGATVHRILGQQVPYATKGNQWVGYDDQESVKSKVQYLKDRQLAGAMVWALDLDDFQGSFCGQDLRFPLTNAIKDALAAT

blocking of chitinase activity [1]: poor blockers
Structure (SMILES): NC1C(OC2C(CO)OC(OC3C(CO)OC(OC4C(CO)OC(OC5C(CO)OC(OC6C(CO)OC(OC7C(CO)OC(OC8C(CO)OC(OC9C(CO)OC(O)C(N)C9O)C(N)C8O)C(N)C7O)C(N)C6O)C(N)C5O)C(N)C4O)C(N)C3O)C(N)C2O)OC(CO)C(O)C1O (stereo not drawn) [Homologue D9]

blocking of chitinase activity [1]: poor blockers
Structure (SMILES): NC1C(OC2C(CO)OC(OC3C(CO)OC(OC4C(CO)OC(OC5C(CO)OC(OC6C(CO)OC(OC7C(CO)OC(OC8C(CO)OC(OC9C(CO)OC(OC%10C(CO)OC(OC%11C(CO)OC(OC%12C(CO)OC(O)C(N)C%12O)C(N)C%11O)C(N)C%10O)C(N)C9O)C(N)C8O)C(N)C7O)C(N)C6O)C(N)C5O)C(N)C4O)C(N)C3O)C(N)C2O)OC(CO)C(O)C1O (stereo not drawn) [Homologue D12]

dissociation constant [2]: μmolar range
blocking of chitinase activity [1]: poor blockers
IC50 ([1]; pH 7.4, 37° C., 10 min, 4-MU-A3 substrate, NB = no blocking found, read-out: IC50): 1980 µM
Structure (SMILES): N[C@H]1[C@H](O[C@H]2[C@H](O)[C@@H](N)[C@H](O[C@H]3[C@H](O)[C@@H](N)[C@H](O[C@H]4[C@H](O)[C@@H](N)[C@H](O[C@H]5[C@H](O)[C@@H](N)[C@H](O[C@H]6[C@H](O)[C@@H](N)C(O)O[C@@H]6CO)O[C@@H]5CO)O[C@@H]4CO)O[C@@H]3CO)O[C@@H]2CO)O[C@H](CO)[C@@H](O)[C@@H]1O (stereo partly drawn) [Homologue D6]

Structure (SMILES): CC(=O)N[C@H]1[C@H](O[C@H]2[C@H](O)[C@@H](NC(C)=O)[C@H](O[C@H]3[C@H](O)[C@@H](NC(C)=O)C(O)O[C@@H]3CO)O[C@@H]2CO)O[C@H](CO)[C@@H](O[C@@H]2O[C@H](CO)[C@@H](O[C@@H]3O[C@H](CO)[C@@H](O[C@@H]4O[C@H](CO)[C@@H](O)[C@H](O)[C@H]4NC(C)=O)[C@H](O)[C@H]3NC(C)=O)[C@H](O)[C@H]2NC(C)=O)[C@@H]1O (stereo partly drawn) [Homologue A6]
cleavage by Chitinase A [3]: cleaved

Mass calc (HPIEC homologue) ([4]; GPC, HPIEC and MALDI-TOF): 270 μg
Conc (HPIEC homologue) ([4]; blood sample after 3 weeks of ChOS consumption, GPC, HPIEC and MALDI-TOF): 39 μg/mL
oligomers observed in blood sample ([4]; post 1 week of ChOS consumption, 1.8 g daily): traces
Structure (SMILES): CC(=O)N[C@H]1[C@H](O[C@H]2[C@H](O)[C@@H](NC(C)=O)C(O)O[C@@H]2CO)O[C@H](CO)[C@@H](O)[C@@H]1O (stereo partly drawn) [Homologue A2]

Structure (SMILES): CC(=O)N[C@H]1[C@H](O[C@H]2[C@H](O)[C@@H](NC(C)=O)C(O)O[C@@H]2CO)O[C@H](CO)[C@@H](O[C@@H]2O[C@H](CO)[C@@H](O)[C@H](O)[C@H]2NC(C)=O)[C@@H]1O (stereo partly drawn) [Homologue A3]
IC50 [1]: 219 µM
Mass calc (HPIEC homologue) ([4]; GPC, HPIEC and MALDI-TOF): 30 μg
concentration at 3 weeks ([4]; human, serum, oral, 1.8 g daily (ChOS mixture), blood sample after 3 weeks of ChOS consumption, GPC, HPIEC and MALDI-TOF, read-out: Conc (HPIEC homologue)): 4000 ng/mL
